Experimental data reported in patent US20080262056A1, “Oxindole Oxazolidinones as Antibacterial Agents” (Pfizer Inc, priority 2004, published 2008).
In brackets after ≈: the same amount, converted by molar mass.

Legend:
Format in all cases: cell-based
E. faecalis MGH-2 EF 1-1 = assay: in vitro antibacterial activity (MIC), E. faecalis; conditions: Enterococcus faecalis, MGH2EF11
Description: (§1) The in vitro antibacterial activity of the compounds of the present invention may be assessed by following procedures recommended in (1) National Committee for Clinical Laboratory Standards (January 2003), Methods for dilution antimicrobial tests for bacteria that grow aerobically, Approved Standard (6th ed), M7-A6, NCCLS, Wayne, Pa.; (2) National Committee for Clinical Laboratory Standards (March 2001), Methods for antimicrobial susceptibility testing of anaerobic bacteria, Approved Standard (5th ed), M11-A4, NCCLS, Wayne, Pa.; (3) National Committee for Clinical Laboratory Standards (Jan. 2003), MIC testing supplemental tables, M100-S13 (for use with M7-A6), NCCLS, Wayne, Pa.; and (4) Murray P R, Baron E J, Jorgensen J H, et al. Manual of Clinical Microbiology (8th ed) Washington, D.C.: American Society for Microbiology Press, 2003. The MIC value is the lowest concentration of drug which prevented macroscopically visible growth under the conditions of the test.

S. pneumoniae SV1 SP-3 = assay: in vitro antibacterial activity (MIC), S. pneumoniae; conditions: Streptococcus pneumoniae, SV1SP3
Description: as §1

S. aureus UC-76 SA-1 = assay: in vitro antibacterial activity (MIC), S. aureus; conditions: for MIC90: Staphylococcus aureus, UC76, S. aureus UC-76 SA-1
Description: as §1

Compound	MIC90 (E. faecalis MGH-2 EF 1-1)	MIC90 (S. pneumoniae SV1 SP-3)	MIC90 (S. aureus UC-76 SA-1)	in vitro antibacterial activity MIC90 (S. aureus UC-76 SA-1; S. aureus UC-76 SA-1)
CCC(=O)NC[C@H]1CN(c2ccc3c(c2)CC(=O)N3C)C(=O)O1 [Example 2, (S)—N-[3-(1-methyl-2-oxo-2,3-dihydro-1H-indol-5-yl)-2-oxo-oxazolidin-5-ylmethyl]-propionamide]	2 µg/mL (≈ 6.3 µM)	1 µg/mL (≈ 3.15 µM)	8 µg/mL (≈ 25.2 µM)	
CC(=O)NC[C@H]1CN(c2cc(F)c3c(c2)CC(=O)N3C)C(=O)O1 [Example 3, N-[3-(7-fluoro-1-methyl-2-oxo-2,3-dihydro-1H-indol-5-yl)-2-oxo-oxazolidin-5-ylmethyl]-acetamide]	4 µg/mL (≈ 12.4 µM)	2 µg/mL (≈ 6.22 µM)	4 µg/mL (≈ 12.4 µM)	
CCC(=O)NC[C@H]1CN(c2cc(F)c3c(c2)CC(=O)N3C)C(=O)O1 [Example 4, (S)—N-[3-(7-fluoro-1-methyl-2-oxo-2,3-dihydro-1H-indol-5-yl)-2-oxo-oxazolidin-5-ylmethyl]-propionamide]	4 µg/mL (≈ 11.9 µM)	2 µg/mL (≈ 5.96 µM)	8 µg/mL (≈ 23.9 µM)	
CCN1C(=O)Cc2cc(N3C[C@H](CNC(C)=O)OC3=O)cc(F)c21 [Example 7, (S)—N-[3-(1-ethyl-7-fluoro-2-oxo-2,3-dihydro-1H-indol-5-yl)-2-oxo-oxazolidin-5-ylmethyl]-acetamide]	2 µg/mL (≈ 5.96 µM)	2 µg/mL (≈ 5.96 µM)	2 µg/mL (≈ 5.96 µM)	
CCC(=O)NC[C@H]1CN(c2cc(F)c3c(c2)CC(=O)N3CC)C(=O)O1 [Example 8, (S)—N-[3-(1-ethyl-7-fluoro-2-oxo-2,3-dihydro-1H-indol-5-yl)-2-oxo-oxazolidin-5-ylmethyl]-propionamide]	2 µg/mL (≈ 5.72 µM)	4 µg/mL (≈ 11.4 µM)	4 µg/mL (≈ 11.4 µM)	
CCC(=O)NC[C@H]1CN(c2cc(F)c3c(c2)CC(=O)N3CCF)C(=O)O1 [Example 12, (S)—N-{3-[7-fluoro-1-(2-fluoro-ethyl)-2-oxo-2,3-dihydro-1H-indol-5-yl]-2-oxo-oxazolidin-5-ylmethyl}-propionamide]	4 µg/mL (≈ 10.9 µM)	4 µg/mL (≈ 10.9 µM)	8 µg/mL (≈ 21.8 µM)	
CC(=O)NC[C@H]1CN(c2ccc3c(c2)CC(=O)N3C(C)C)C(=O)O1 [Example 13, (S)—N-[3-(1-isopropyl-2-oxo-2,3-dihydro-1H-indol-5-yl)-2-oxo-oxazolidin-5-ylmethyl]-acetamide]	4 µg/mL (≈ 12.1 µM)	2 µg/mL (≈ 6.04 µM)	4 µg/mL (≈ 12.1 µM)	
CCC(=O)NC[C@H]1CN(c2ccc3c(c2)CC(=O)N3C(C)C)C(=O)O1 [Example 14, (S)—N-[3-(1-isopropyl-2-oxo-2,3-dihydro-1H-indol-5-yl)-2-oxo-oxazolidin-5-ylmethyl]-propionamide]	8 µg/mL (≈ 23.2 µM)	4 µg/mL (≈ 11.6 µM)	8 µg/mL (≈ 23.2 µM)	
CC(=O)NC[C@H]1CN(c2cc(F)c3c(c2)CC(=O)N3C(C)C)C(=O)O1 [Example 15, (S)—N-[3-(7-fluoro-1-isopropyl-2-oxo-2,3-dihydro-1H-indol-5-yl)-2-oxo-oxazolidin-5-ylmethyl]-acetamide]	2 µg/mL (≈ 5.72 µM)	2 µg/mL (≈ 5.72 µM)	4 µg/mL (≈ 11.4 µM)	
CCC(=O)NC[C@H]1CN(c2cc(F)c3c(c2)CC(=O)N3C(C)C)C(=O)O1 [Example 16, (S)—N-[3-(7-fluoro-1-isopropyl-2-oxo-2,3-dihydro-1H-indol-5-yl)-2-oxo-oxazolidin-5-ylmethyl]-propionamide]	4 µg/mL (≈ 11 µM)	4 µg/mL (≈ 11 µM)	8 µg/mL (≈ 22 µM)	
CCCN1C(=O)Cc2cc(N3C[C@H](CNC(=O)CC)OC3=O)cc(F)c21 [Example 20, (S)—N-[3-(7-Fluoro-2-oxo-1-propyl-2,3-dihydro-1H-indol-5-yl)-2-oxo-oxazolidin-5-ylmethyl]-propionamide]	8 µg/mL (≈ 22 µM)	4 µg/mL (≈ 11 µM)	8 µg/mL (≈ 22 µM)	
CC(=O)NC[C@H]1CN(c2ccc3c(c2)CC(=O)N3C2CC2)C(=O)O1 [Example 21, (S)—N-[3-(1-cyclopropyl-2-oxo-2,3-dihydro-1H-indol-5-yl)-2-oxo-oxazolidin-5-ylmethyl]-acetamide]	4 µg/mL (≈ 12.1 µM)	2 µg/mL (≈ 6.07 µM)	8 µg/mL (≈ 24.3 µM)	
CCC(=O)NC[C@H]1CN(c2ccc3c(c2)CC(=O)N3C2CC2)C(=O)O1 [Example 22, (S)—N-[3-(1-cyclopropyl-2-oxo-2,3-dihydro-1H-indol-5-yl)-2-oxo-oxazolidin-5-ylmethyl]-propionamide]	4 µg/mL (≈ 11.6 µM)	4 µg/mL (≈ 11.6 µM)	8 µg/mL (≈ 23.3 µM)	
CC(=O)NC[C@H]1CN(c2cc(F)c3c(c2)CC(=O)N3C2CC2)C(=O)O1 [Example 23, (S)—N-[3-(1-cyclopropyl-7-fluoro-2-oxo-2,3-dihydro-1H-indol-5-yl)-2-oxo-oxazolidin-5-ylmethyl]-acetamide]	4 µg/mL (≈ 11.5 µM)	4 µg/mL (≈ 11.5 µM)	8 µg/mL (≈ 23 µM)	
CCC(C)N1C(=O)Cc2cc(N3C[C@H](CNC(C)=O)OC3=O)ccc21 (stereo partly drawn) [Example 24, (S)—N-[3-(1-sec-butyl-2-oxo-2,3-dihydro-1H-indol-5-yl)-2-oxo-oxazolidin-5-ylmethyl]-acetamide]	4 µg/mL (≈ 11.6 µM)	4 µg/mL (≈ 11.6 µM)	8 µg/mL (≈ 23.2 µM)	
CCC(=O)NC[C@H]1CN(c2ccc3c(c2)CC(=O)N3C(C)CC)C(=O)O1 (stereo partly drawn) [Example 25, (S)—N-[3-(1-sec-butyl-2-oxo-2,3-dihydro-1H-indol-5-yl)-2-oxo-oxazolidin-5-ylmethyl]-propionamide]	8 µg/mL (≈ 22.3 µM)	8 µg/mL (≈ 22.3 µM)	8 µg/mL (≈ 22.3 µM)	
CCC(=O)NC[C@H]1CN(c2ccc3c(c2)CC(=O)N3CC2CC2)C(=O)O1 [Example 27, (S)—N-[3-(1-cyclopropylmethyl-2-oxo-2,3-dihydro-1H-indol-5-yl)-2-oxo-oxazolidin-5-ylmethyl]-propionamide]	8 µg/mL (≈ 22.4 µM)	4 µg/mL (≈ 11.2 µM)	8 µg/mL (≈ 22.4 µM)	
CC(=O)NC[C@H]1CN(c2cc(F)c3c(c2)CC(=O)N3CC2CC2)C(=O)O1 [Example 29, (S)—N-[3-(1-cyclopropylmethyl-7-fluoro-2-oxo-2,3-dihydro-1H-indol-5-yl)-2-oxo-oxazolidin-5-ylmethyl]-acetamide]	2 µg/mL (≈ 5.53 µM)	2 µg/mL (≈ 5.53 µM)	2 µg/mL (≈ 5.53 µM)	

More lines, now with the values ahead:

MIC90 (E. faecalis MGH-2 EF 1-1)	MIC90 (S. pneumoniae SV1 SP-3)	MIC90 (S. aureus UC-76 SA-1)	in vitro antibacterial activity MIC90 (S. aureus UC-76 SA-1; S. aureus UC-76 SA-1)	Compound
2 µg/mL (≈ 6.59 µM)	1 µg/mL (≈ 3.3 µM)	8 µg/mL (≈ 26.4 µM)		CC(=O)NC[C@H]1CN(c2ccc3c(c2)CC(=O)N3C)C(=O)O1 [Example 1, (S)—N-[3-(1-methyl-2-oxo-2,3-dihydro-1H-indol-5-yl)-2-oxo-oxazolidin-5-ylmethyl]-acetamide]
8 µg/mL (≈ 25.2 µM)	2 µg/mL (≈ 6.3 µM)	8 µg/mL (≈ 25.2 µM)		CCN1C(=O)Cc2cc(N3C[C@H](CNC(C)=O)OC3=O)ccc21 [Example 5, (S)—N-[3-(1-ethyl-2-oxo-2,3-dihydro-1H-indol-5-yl)-2-oxo-oxazolidin-5-ylmethyl]-acetamide]
2 µg/mL (≈ 6.04 µM)	2 µg/mL (≈ 6.04 µM)	4 µg/mL (≈ 12.1 µM)		CCC(=O)NC[C@H]1CN(c2ccc3c(c2)CC(=O)N3CC)C(=O)O1 [Example 6, (S)—N-[3-(1-ethyl-2-oxo-2,3-dihydro-1H-indol-5-yl)-2-oxo-oxazolidin-5-ylmethyl]-propionamide]
2 µg/mL (≈ 5.96 µM)	2 µg/mL (≈ 5.96 µM)	8 µg/mL (≈ 23.9 µM)		CC(=O)NC[C@H]1CN(c2ccc3c(c2)CC(=O)N3CCF)C(=O)O1 [Example 9, (S)—N-{3-[1-(2-fluoro-ethyl)-2-oxo-2,3-dihydro-1H-indol-5-yl]-2-oxo-oxazolidin-5-ylmethyl}-acetamide]
2 µg/mL (≈ 5.72 µM)	2 µg/mL (≈ 5.72 µM)	8 µg/mL (≈ 22.9 µM)	4 µg/mL	CCC(=O)NC[C@H]1CN(c2ccc3c(c2)CC(=O)N3CCF)C(=O)O1 [Example 10, (S)—N-{3-[1-(2-fluoro-ethyl)-2-oxo-2,3-dihydro-1H-indol-5-yl]-2-oxo-oxazolidin-5-ylmethyl}-propionamide]
2 µg/mL (≈ 5.66 µM)	1 µg/mL (≈ 2.83 µM)	4 µg/mL (≈ 11.3 µM)		CC(=O)NC[C@H]1CN(c2cc(F)c3c(c2)CC(=O)N3CCF)C(=O)O1 [Example 11, (S)—N-{3-[7-fluoro-1-(2-fluoro-ethyl)-2-oxo-2,3-dihydro-1H-indol-5-yl]-2-oxo-oxazolidin-5-ylmethyl}-acetamide]
4 µg/mL (≈ 12.1 µM)	2 µg/mL (≈ 6.04 µM)	4 µg/mL (≈ 12.1 µM)		CCCN1C(=O)Cc2cc(N3C[C@H](CNC(C)=O)OC3=O)ccc21 [Example 17, (S)—N-[2-oxo-3-(2-oxo-1-propyl-2,3-dihydro-1H-indol-5-yl)-oxazolidin-5-ylmethyl]-acetamide]
8 µg/mL (≈ 23.2 µM)	4 µg/mL (≈ 11.6 µM)	8 µg/mL (≈ 23.2 µM)		CCCN1C(=O)Cc2cc(N3C[C@H](CNC(=O)CC)OC3=O)ccc21 [Example 18, (S)—N-[2-oxo-3-(2-oxo-1-propyl-2,3-dihydro-1H-indol-5-yl)-oxazolidin-5-ylmethyl]-propionamide]
4 µg/mL (≈ 11.6 µM)	4 µg/mL (≈ 11.6 µM)	8 µg/mL (≈ 23.3 µM)		CC(=O)NC[C@H]1CN(c2ccc3c(c2)CC(=O)N3CC2CC2)C(=O)O1 [Example 26, (S)—N-[3-(1-cyclopropylmethyl-2-oxo-2,3-dihydro-1H-indol-5-yl)-2-oxo-oxazolidin-5-ylmethyl]-acetamide]
4 µg/mL (≈ 11.4 µM)	2 µg/mL (≈ 5.72 µM)	8 µg/mL (≈ 22.9 µM)		CC(=O)NC[C@H]1CN(c2ccc3c(c2)CC(=O)N3C(C)CF)C(=O)O1 (stereo partly drawn) [Example 28, (S)—N-{3-[1-(2-fluoro-1-methyl-ethyl)-2-oxo-2,3-dihydro-1H-indol-5-yl]-2-oxo-oxazolidin-5-ylmethyl}-acetamide]
